Assay results reported in a melting point compilation (Tetko et al.; mined from patent text by program, amines drawn as free bases though some values may be those of a salt).

Row | SMILES | melting point [°C]
1 | COCCOCONC(=O)c1nc(-c2ccc(Cl)c(OC)c2F)cc(N)c1Cl | 126 to 128
2 | COc1cc(OC)c(C2CCN(C)CC2OC(C)=O)c(Oc2cccs2)c1C(C)=O (stereo not given) | 153 to 154
3 | Cc1cc(C)c(-c2cc3cnc(N)nc3nc2N)c(C)c1 | 276 to 282
4 | Cc1nn(C2CCCCC2)c(N)c1C(N)=O | 181 to 182
5 | COC1CN(C)S(=O)(=O)c2sccc21 (stereo not given) | 61 to 63
6 | COc1ccc(-c2cn(C)cc(-c3ccccc3)c2=O)cc1C | 157 to 160
7 | C=CCc1cc(Cl)c2ccccc2c1O | 55 to 57
8 | CCOC(=O)/C=C/c1nc(-c2ccccc2)oc1COc1ccc(OCc2nc(-c3ccccc3)oc2C)cc1 | 107 to 108
9 | CSCC(=O)[C@H](CC(C)C)NC(=O)[C@H](CC(C)C)NC(=O)OCc1ccccc1 | 96 to 97
10 | CC(C)(O)C(=O)N[C@H]1CC[C@H](CCN2CCC(c3cccc4c3CCO4)CC2)CC1 | 163
11 | CN(C)Cc1ccc(-c2cc3ncc(C#N)c(Cl)c3s2)cc1 | 166 to 168
12 | CC1(C)C=Cc2cc(C#N)c([N+](=O)[O-])cc2O1 | 154 to 155
13 | OC(C1=NCCN1)(c1ccccc1)c1cccc(Cl)n1 (stereo not given) | 154 to 156
14 | Cc1c(Cc2cc(F)cc(Cl)c2)sc2c(-c3cccc(C(=O)NCCO)c3)cccc12 | 146 to 147
15 | Cc1cc(=O)[nH]c2c1C(=O)CC(c1ccccc1Cl)C2 (stereo not given) | 290 to 291
16 | C#Cc1ccc(OC)c(OC)c1 | 71 to 72
17 | O=C1CCC(N2Cc3c(OCc4ccc(CN5CCn6nc(C(F)(F)F)nc6C5)cc4)cccc3C2=O)C(=O)N1 (stereo not given) | 139 to 142
18 | FC(F)=Cc1nn(-c2c(Cl)cc(C(F)(F)F)cc2Cl)cc1C1CC1(Br)Br (stereo not given) | 71 to 73
19 | CC1CCN(C(=O)NCCc2ccc(S(=O)(=O)NC(=O)NC3CCCCC3)cc2)C(=O)C1 (stereo not given) | 176 to 178
20 | O=C(O)c1csnc1-c1cc(S)cc(Cl)c1 | 150 to 160
21 | CN(C)C1(c2ccccc2)CCC(c2cc3ccccc3n2S(=O)(=O)c2ccccc2)CC1 (stereo not given) | 139 to 142
22 | O=[N+]([O-])c1ccc(CO)cc1OC1CCCC1 | 54
23 | CC(C)(C)c1cc(OC[Si](C)(C)Cc2ccccc2)cc(C(C)(C)C)c1O | 76 to 77
24 | COCc1cc(C(C)(C)C)cc(C(C)(C)C)c1O | 36 to 39
25 | Nc1ccc2c(c1)CCN(C(=O)C(F)(F)F)CC2 | 160 to 162

Row | SMILES | melting point [°C]
26 | CCCCC(=O)c1cn(C(c2ccccc2)(c2ccccc2)c2ccccc2)cn1 | 115 to 118
27 | CC(C)(C)OC(=O)N1C[C@@H](c2c[nH]c3ccccc23)[C@H](c2cn3c4c(cccc24)CCC3)C1 | 239 to 240
28 | O=C(Nc1cccc(C(F)(F)F)c1)c1cccc(Oc2cccc(C(F)(F)F)c2)n1 | 93.1 to 93.7
29 | O=C(c1ccc(C2CCCCC2)cc1)[C@H]1C[C@H]1C(=O)O (relative stereo) | 162 to 163
30 | O=C(Cn1cc(Cl)cn1)c1ccc(Br)s1 | 127
31 | COC(=O)c1c([N+](=O)[O-])cccc1S(=O)(=O)N(CCO)CCO | 92 to 93
32 | C#CCN(c1cc(-c2ccnc3c(C(=O)c4cccs4)cnn23)ccc1F)S(C)(=O)=O | 149 to 153
33 | Cc1ccccc1-n1nccc1-c1nn(-c2cccc(C(F)(F)F)c2)ccc1=O | 126 to 127
34 | CC(C)C[C@H](NC(=O)N1CCOCC1)C(=O)N[C@@H](CCc1ccccc1)C(=O)c1oc(-c2ccccc2)nc1-c1ccccc1 | 83 to 85
35 | Cc1c(C(=O)c2sc(Nc3ccc(N4CCOCC4)cc3)nc2N)ncn1C | > 300
36 | CC12CCCc3cc(N(CC4CC4)c4ncc(C(=O)O)cn4)cc(c31)CCC2 | 123 to 124
37 | COc1cc2c(c3c1OC(C)(C)C3)C(c1cccc(C(=O)NC3CCNC3=O)c1)=NC(C)(C)C2 (stereo not given) | 191 to 193
38 | CN(C)C(=O)N1CCN(Cc2ccc3c(c2)-c2[nH]nc(-c4ccsc4)c2C3)CC1 | 214 to 216
39 | CCN(CC)CCOc1ccc2cc3ccc(OCCN(CC)CC)c(Br)c3nc2c1Br | 66 to 68
40 | COC(=O)c1cccc([N+](=O)[O-])c1C | 64.2 to 65.5
41 | [O-][N+]1=C(c2ccccc2Cl)c2nc(Cl)ccc2-n2cnnc2C1 | 242 to 244
42 | CCC(CC)C1CC(=O)C(C(=O)NS(=O)(=O)c2ccc(C)cc2)C(=O)C1 (stereo not given) | 112
43 | COc1ccc2cc([C@H](C)C(=O)OCC(=O)N(C)CCO[N+](=O)[O-])ccc2c1 | 80 to 81
44 | CN(CCO)Cn1nc(-c2ccncc2)n(-c2ccccc2)c1=S | 173 to 174
45 | COc1ccc2c(c1)[C@@H](Oc1ccc3c(c1)CCC(=O)N3)[C@H](N1CCC[C@@H](N)C1)C2 | 146
46 | COc1ccc(C2=NN(CCCCCCBr)C(=O)[C@H]3CCCC[C@@H]23)cc1OC (relative stereo) | 74 to 75
47 | N#Cc1nn(-c2c(Cl)cc(C(F)(F)F)cc2Cl)c(N)c1S(=O)(=O)C(F)(F)F | 219 to 222
48 | CCCCCCCCCCCCN1C(=O)CC(c2cc(C(C)(C)C)c(O)c(C(C)(C)C)c2)C1=O (stereo not given) | 66 to 70
49 | COc1ccc(C=CC(=O)Nc2ccccc2C(=O)O)cc1O | 215 to 216
50 | COC1=NC2C=C(C(=O)NCC3CC3)C(NC(=O)c3cc(C(F)(F)F)nn3-c3ncccc3Cl)=C(Cl)C2S1 (stereo not given) | 199 to 201

Row | SMILES | melting point [°C]
51 | Cc1cc(C)nc(N(C#N)c2ccccc2)n1 | 153 to 154
52 | CC(=O)NCC1CC1c1c(C2CC2)ccc2nn(C)cc12 (stereo not given) | 102 to 103
53 | COC(=O)c1cc(-c2ccc(OC)c(F)c2)nn(CC(C)C)c1=O | 119 to 121
54 | CNCC1CCN(c2ccc(Cl)cc2NC(=O)c2csc3cncnc23)CC1 | 190 to 193
55 | COCc1cc(Cl)c2cccc(OC)c2n1 | 67 to 69
56 | O=[N+]([O-])c1cc(O)ccc1F | 86 to 87
57 | COc1ccc(OCCc2c[nH]cn2)cc1 | 178 to 181
58 | Nc1ccc(CC2CCN(S(=O)(=O)N3CCCCC3)CC2)cc1 | 144 to 145
59 | Cc1cccc(Cl)c1-n1nc(C(C)C)c(C(N)=O)c1N | 72 to 74
60 | O=C(O)C(=O)c1ccc(C(=O)NCCOc2ccc3ccccc3c2)cc1 | 173 to 175
61 | O=c1c2ccccc2n(CCc2ccccc2)c(=O)n1S(=O)(=O)c1ccc(Cl)cc1 | 200 to 202
62 | N#Cc1cccc(C2=Nc3ccc(C=Cc4ccccc4)cc3NC(=O)C2)c1 | 185 to 188
63 | O=c1oc(=O)c2ccc3c4ccccc4sc4ccc1c2c43 | 315 to 317
64 | O=C(O)c1ccc(Cl)c(S)c1 | 209 to 211
65 | Cc1noc(NS(=O)(=O)c2ccccc2-c2ccc(-c3ncco3)cc2CN(C)C(=O)CC(F)(F)F)c1C | 85 to 100
66 | Cc1cc(-c2[nH]c3c([N+](=O)[O-])cccc3c2C)cc(C)c1O | 178 to 179
67 | O=C(Nc1ncco1)c1c(C(F)(F)F)nc2c(C(F)(F)F)cccc2c1O | 258
68 | Cc1ncc2n1-c1ccccc1N(c1ccccc1)C(=O)C2 | 217 to 220
69 | N#CCc1c[nH]c2ccc(NC(=O)NC3CCCCC3)cc12 | 233 to 234
70 | O=Cc1ccc2cccc3c4cccc5cccc(c1c23)c54 | 232 to 234
71 | COc1ccc(CCn2ccc3ccc(-c4cccc(C(=O)NCCN(C)C)c4)nc32)cc1OC | 97 to 98
72 | COc1ccc(-c2cc(=O)c3c(O)cc(OCC4=COC(C)(C)O4)cc3o2)cc1OC | 166
73 | Clc1cccc(/C=C/C2=CCN(Cc3c[nH]c4ncccc34)CC2)c1 | 208 to 210
74 | CCc1c(-c2ccc(OCc3ccccc3)cc2)c2cc(COC)c3cccc1n32 | 111 to 113
75 | NCCOc1cccc2[nH]ccc12 | 123 to 125

Row | SMILES | melting point [°C]
76 | CC(=O)c1cccc2c1Cc1ccccc1-2 | 84 to 87
77 | CC(C)c1nn(-c2ccc(C(F)(F)F)cn2)cc1CCCO | 87 to 88
78 | COc1ccc(CCS(=O)(=O)CC2CCC2)cc1 | 52
79 | CN1C2CCC1CN(c1ccc(-c3cccs3)nn1)C2 | 156
80 | CCCc1nc(S(=O)(=O)Nc2c(F)cccc2F)nn1-c1ccccc1 | 148 to 150
81 | c1nc(NCCN2CCOCC2)c2sc3nc(N4CCOCC4)c4c(c3c2n1)CCOC4 | 184 to 185
82 | CNC1([C@@H]2CCN(c3ccc4c(=O)c(C(=O)O)cn(C5CC5)c4c3C)C2)CC1 | 190 to 192
83 | COCCNC(=O)C1=C(C(=O)Nc2cc(OC3CCCC3)c(Cl)cc2F)CCCC1 | 151
84 | O=c1cc(-c2ccc(OCCO)cc2)oc2ncccc12 | 157 to 159
85 | O=C(O)c1c(-c2cccc(OCC3CC3)c2)c2ccccc2n1Cc1ccc(F)cc1 | 200 to 202
86 | COc1cccc2c1nc(-c1c(F)cccc1F)n2Cc1c(F)cccc1F | 154 to 155
87 | N=C(NO)c1ccc(Cl)nc1 | 185 to 186
88 | C=Cc1c(C)oc(-c2ccc(S(C)(=O)=O)cc2)c(Oc2ccc(F)cc2F)c1=O | 184
89 | C=CCN[C@H]1CC(C(=O)OCC)=C[C@@H](OC(CC)CC)[C@@H]1NC(C)=O | 100 to 104
90 | Nc1cc(C(=O)O)cc(SCc2ccccc2)c1-c1ccccc1 | 173 to 174
91 | Cc1cc2ccc(=O)oc2cc1O | 253 to 254
92 | O=C(O)c1ccc2cc(OCCC(c3ccccc3)(c3ccccc3)c3ccccc3)ccc2c1 | 243 to 244
93 | NC(=O)n1c(S(=O)Cc2ccccn2)nc2ccccc21 (stereo not given) | 164
94 | O=C(O)Cn1c(=O)c(=O)[nH]c2ccccc21 | > 300
95 | O=C1CCSc2ncccc21 | 66 to 68
96 | c1ccc(Sc2c[nH]c3ccccc23)cc1 | 149 to 151
97 | Cc1ccc(S(=O)(=O)Nc2c(C)c(C)c3c(c2C)CC(C)(C)O3)cc1 | 219 to 220
98 | Cn1ncc2c(c1=O)SCCNC2C(=O)c1ccccc1 (stereo not given) | 210
99 | Cn1cc(C(=O)OCC23CCCN(CC2)C3)c2ccccc21 (stereo not given) | 94.5 to 96.5
100 | CCCCc1nc2cccc(C(=O)OC)c2n1Cc1ccc(-c2ccccc2C#N)nc1 | 155 to 156
